Laboratory results from patent US20200315923A1, “DESINFECTANT BONE AND DENTAL FILLER MATERIALS COMPRISING LIPOSOMES” (Cementic, priority 2017, published 2020).

How the values were obtained:
[1] = system: Gram+ bacteria; details: cited from earlier work
[2] = system: Gram-bacteria; details: cited from earlier work
[3] = system: Enterococcus faecalis; assay: Agarose gel diffusion test; format: cell-based; details: agar diffusion, this experiment
Method: An adaptation of the agarose gel diffusion test was tested and validated for dental cements. The analysis was performed using the plaque assay. In the case of a test on samples of various concentrations, the ICM can be estimated using a software available on an on-line platform developed by Bonev in 2008 (http://agardiffusion.com) (Principles of assessing bacterial susceptibility to antibiotics using the agar diffusion method J. Antimic. Chemoth., 61 12951301).
For this experiment, liposomes and disinfecting fillers were produced as described in 8.1 and 7.6 a.
3 mm circular wells were punched using a disposable biopsy needle into Mueller-Hinton agar. The agar was then homogeneously inoculated with 100 μL of a solution of Enterococcus faecalis adjusted to a concentration of 0.5 MacFarland. Bio Root™ cement was then prepared (500 mg powder+250 μL liquid+/−35 μL CEM CHX 0918-001). The wells were then filled with cement using a pipetman for viscous solutions. The agar plates were then incubated at 37° C. under aerobic conditions for 24 hours. The area of growth inhibition was then measured using a ruler (FIG. 26).
To measure the effect of the prolonged release of antimicrobial agent, agar plates were prepared as above but without being inoculated with E. faecalis. […] The plates were then incubated for 24 hours and the lysis areas measured with a ruler.

calculated MIC [3]	SMILES	MIC (concentration corresponding to the elimination of 90% of the bacteria) [1]	MIC (concentration corresponding to the elimination of 90% of the bacteria) [2]
	[H]/N=C(\N/C(=N/[H])NCCCCCCNC(=N)NC(=N)Nc1ccc(Cl)cc1)Nc1ccc(Cl)cc1 [chlorhexidine]	22 µg/mL	40 µg/mL
15.5 µg/mL	N=C(NCCCCCCNC(=N)NC(=N)Nc1ccc(Cl)cc1)NC(=N)Nc1ccc(Cl)cc1.O=C(O)[C@H](O)[C@@H](O)[C@H](O)[C@H](O)CO.O=C(O)[C@H](O)[C@@H](O)[C@H](O)[C@H](O)CO [chlorhexidine digluconate]		
